Results from ChEMBL document CHEMBL1201862, “PubChem BioAssay data set” (2004).
Calls of active or inactive are those of the source.

Columns and labels:
[1] = target: T1, Replicative DNA helicase DnaB (Mycobacterium tuberculosis, UniProt P9WMR3); test: DnaB intein splicing inhibitors, dose response, biochemical, cell-free fluorescence (AID 449749); type: functional
T1 sequence (P9WMR3 whole entry): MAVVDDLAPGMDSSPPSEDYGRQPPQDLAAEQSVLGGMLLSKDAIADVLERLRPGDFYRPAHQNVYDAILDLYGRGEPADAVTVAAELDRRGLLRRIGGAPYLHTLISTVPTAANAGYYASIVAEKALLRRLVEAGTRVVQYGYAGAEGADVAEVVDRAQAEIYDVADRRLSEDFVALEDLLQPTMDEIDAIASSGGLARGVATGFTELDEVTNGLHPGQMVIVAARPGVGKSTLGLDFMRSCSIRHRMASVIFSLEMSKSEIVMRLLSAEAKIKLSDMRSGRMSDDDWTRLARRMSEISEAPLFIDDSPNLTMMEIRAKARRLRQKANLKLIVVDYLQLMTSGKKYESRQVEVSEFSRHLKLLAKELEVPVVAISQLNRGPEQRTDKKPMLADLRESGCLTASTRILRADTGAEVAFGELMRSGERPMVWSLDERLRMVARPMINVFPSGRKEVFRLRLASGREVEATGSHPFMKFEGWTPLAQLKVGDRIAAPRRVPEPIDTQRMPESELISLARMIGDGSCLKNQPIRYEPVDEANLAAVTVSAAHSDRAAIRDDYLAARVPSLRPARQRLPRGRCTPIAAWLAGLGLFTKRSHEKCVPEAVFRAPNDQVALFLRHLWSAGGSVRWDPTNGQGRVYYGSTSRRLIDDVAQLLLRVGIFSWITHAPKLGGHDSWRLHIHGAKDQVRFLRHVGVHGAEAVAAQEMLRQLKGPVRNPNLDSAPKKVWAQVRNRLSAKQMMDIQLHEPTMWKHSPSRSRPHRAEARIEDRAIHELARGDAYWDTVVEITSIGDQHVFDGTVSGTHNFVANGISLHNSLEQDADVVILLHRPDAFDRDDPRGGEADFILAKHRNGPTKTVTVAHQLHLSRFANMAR

[2] = inhibitors of SNCA 5'UTR-driven reporter translation, confirmation, H4 neuroglioma cells, luminescence (AID 1988); type: functional, cell-based
[3] = target: T2, Apoptotic protease-activating factor 1 (Homo sapiens, UniProt O14727); type: functional
T2 sequence (O14727 whole entry): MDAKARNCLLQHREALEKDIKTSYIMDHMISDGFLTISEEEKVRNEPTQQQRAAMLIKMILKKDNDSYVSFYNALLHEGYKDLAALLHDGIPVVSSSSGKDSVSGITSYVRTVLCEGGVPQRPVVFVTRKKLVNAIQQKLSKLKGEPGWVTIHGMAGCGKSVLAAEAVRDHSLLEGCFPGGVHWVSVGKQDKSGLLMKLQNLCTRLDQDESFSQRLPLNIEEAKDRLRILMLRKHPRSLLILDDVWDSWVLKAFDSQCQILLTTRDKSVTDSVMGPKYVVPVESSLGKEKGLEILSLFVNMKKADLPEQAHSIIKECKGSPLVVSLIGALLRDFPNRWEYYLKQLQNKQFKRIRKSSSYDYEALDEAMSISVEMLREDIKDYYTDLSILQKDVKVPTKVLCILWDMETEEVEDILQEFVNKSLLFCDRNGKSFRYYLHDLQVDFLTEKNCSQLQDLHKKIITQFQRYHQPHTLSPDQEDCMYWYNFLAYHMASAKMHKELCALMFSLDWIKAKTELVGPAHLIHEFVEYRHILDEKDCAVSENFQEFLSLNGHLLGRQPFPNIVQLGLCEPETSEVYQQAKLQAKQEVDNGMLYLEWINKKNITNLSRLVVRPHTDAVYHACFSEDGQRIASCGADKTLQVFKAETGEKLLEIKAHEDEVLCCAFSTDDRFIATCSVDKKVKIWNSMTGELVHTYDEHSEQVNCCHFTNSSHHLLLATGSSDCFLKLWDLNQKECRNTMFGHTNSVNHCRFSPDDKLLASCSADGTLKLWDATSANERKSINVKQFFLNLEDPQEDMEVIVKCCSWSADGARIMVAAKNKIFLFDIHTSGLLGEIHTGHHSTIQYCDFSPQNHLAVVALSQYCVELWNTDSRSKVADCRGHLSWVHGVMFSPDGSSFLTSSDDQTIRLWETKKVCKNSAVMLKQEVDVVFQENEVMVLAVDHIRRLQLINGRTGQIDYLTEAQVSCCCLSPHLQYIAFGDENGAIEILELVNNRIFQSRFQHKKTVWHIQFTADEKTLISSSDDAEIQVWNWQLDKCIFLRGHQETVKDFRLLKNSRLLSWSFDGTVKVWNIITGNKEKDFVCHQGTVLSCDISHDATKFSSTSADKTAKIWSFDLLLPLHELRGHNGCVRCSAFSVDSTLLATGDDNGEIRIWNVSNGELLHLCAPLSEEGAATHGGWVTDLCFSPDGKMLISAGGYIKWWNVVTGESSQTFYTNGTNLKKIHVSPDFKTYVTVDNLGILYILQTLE

[4] = inhibitors of firefly luciferase expression or activity, dose response, H4 neuroglioma cells, luminescence (AID 1990); type: functional, cell-based
[5] = target: Heat shock cognate 71 kDa protein (Homo sapiens, UniProt P11142); test: In Vitro Hsc70 Dose Response Fluorescence Polarization Assay. [Related pubchem assays: 1072 ]
Chain of Heat shock cognate 71 kDa protein (P11142 whole entry): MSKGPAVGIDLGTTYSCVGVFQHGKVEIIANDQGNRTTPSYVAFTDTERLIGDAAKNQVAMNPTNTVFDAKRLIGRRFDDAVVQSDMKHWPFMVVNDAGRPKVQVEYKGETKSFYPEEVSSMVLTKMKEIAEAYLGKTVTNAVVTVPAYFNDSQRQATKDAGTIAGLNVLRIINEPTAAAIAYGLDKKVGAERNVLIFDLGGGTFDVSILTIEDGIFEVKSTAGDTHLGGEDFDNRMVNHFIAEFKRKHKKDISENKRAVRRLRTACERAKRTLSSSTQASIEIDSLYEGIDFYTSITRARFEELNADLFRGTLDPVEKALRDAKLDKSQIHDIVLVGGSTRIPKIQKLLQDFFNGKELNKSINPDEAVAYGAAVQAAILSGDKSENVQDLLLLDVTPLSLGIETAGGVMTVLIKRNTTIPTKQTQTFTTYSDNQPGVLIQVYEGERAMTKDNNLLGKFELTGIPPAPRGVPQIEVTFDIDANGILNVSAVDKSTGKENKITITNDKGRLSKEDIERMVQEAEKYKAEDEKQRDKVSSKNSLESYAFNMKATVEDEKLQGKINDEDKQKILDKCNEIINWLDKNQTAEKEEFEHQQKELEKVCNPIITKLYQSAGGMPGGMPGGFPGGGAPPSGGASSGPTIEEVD

Protein skinhead-1 = target: T3, Protein skinhead-1 (Caenorhabditis elegans, UniProt P34707); type: functional
T3 sequence (P34707 whole entry): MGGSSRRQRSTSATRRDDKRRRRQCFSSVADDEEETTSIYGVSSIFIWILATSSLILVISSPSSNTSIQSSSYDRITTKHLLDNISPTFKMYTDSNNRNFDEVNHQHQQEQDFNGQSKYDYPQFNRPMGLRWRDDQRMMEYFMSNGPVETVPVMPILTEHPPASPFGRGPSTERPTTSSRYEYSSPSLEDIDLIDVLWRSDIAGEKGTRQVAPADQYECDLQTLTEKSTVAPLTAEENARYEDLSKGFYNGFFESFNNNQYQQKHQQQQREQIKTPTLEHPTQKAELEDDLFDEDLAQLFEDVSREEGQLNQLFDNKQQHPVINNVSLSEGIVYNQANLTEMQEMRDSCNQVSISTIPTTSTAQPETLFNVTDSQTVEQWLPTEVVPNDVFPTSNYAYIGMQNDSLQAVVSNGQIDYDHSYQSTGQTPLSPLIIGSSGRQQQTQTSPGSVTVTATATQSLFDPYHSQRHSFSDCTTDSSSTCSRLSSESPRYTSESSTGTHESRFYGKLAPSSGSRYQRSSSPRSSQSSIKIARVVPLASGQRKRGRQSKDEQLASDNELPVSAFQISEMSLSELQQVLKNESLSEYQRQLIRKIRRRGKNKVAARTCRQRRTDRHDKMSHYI

[6] = target: Mitogen-activated protein kinase 12 (Homo sapiens, UniProt P53778); type: functional;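 note: measured as one member of a kinome-wide kinase profiling panel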
Chain of Mitogen-activated protein kinase 12 (P53778 whole entry): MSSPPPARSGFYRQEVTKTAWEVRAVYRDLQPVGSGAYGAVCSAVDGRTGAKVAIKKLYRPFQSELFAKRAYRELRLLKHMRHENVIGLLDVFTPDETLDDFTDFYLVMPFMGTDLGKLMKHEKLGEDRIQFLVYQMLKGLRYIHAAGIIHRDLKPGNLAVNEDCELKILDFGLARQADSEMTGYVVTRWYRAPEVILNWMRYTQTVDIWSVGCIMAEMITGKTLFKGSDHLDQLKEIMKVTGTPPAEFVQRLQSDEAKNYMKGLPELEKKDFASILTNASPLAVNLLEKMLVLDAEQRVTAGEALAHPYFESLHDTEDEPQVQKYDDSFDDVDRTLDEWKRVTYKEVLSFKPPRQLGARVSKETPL

[7] = target: Proto-oncogene tyrosine-protein kinase Src (Homo sapiens, UniProt P12931); type: functional;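 note: SRC entry within a kinome-wide kinase profiling panel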
Chain of Proto-oncogene tyrosine-protein kinase Src (P12931 2-536 limits assumed): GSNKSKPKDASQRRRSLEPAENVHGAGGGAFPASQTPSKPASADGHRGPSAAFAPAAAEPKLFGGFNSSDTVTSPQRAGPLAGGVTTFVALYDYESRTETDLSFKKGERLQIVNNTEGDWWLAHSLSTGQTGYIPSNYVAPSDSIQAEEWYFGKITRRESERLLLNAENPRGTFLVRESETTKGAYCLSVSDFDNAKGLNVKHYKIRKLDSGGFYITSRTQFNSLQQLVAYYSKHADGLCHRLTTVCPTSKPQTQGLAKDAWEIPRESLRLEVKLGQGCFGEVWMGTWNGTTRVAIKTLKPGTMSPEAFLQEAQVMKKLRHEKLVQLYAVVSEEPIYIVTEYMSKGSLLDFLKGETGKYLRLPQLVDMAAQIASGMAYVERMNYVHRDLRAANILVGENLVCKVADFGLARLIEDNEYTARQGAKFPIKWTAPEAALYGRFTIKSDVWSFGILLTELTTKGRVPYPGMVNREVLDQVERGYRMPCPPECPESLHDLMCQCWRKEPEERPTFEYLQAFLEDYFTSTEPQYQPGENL

Row | SMILES | AC50 [1] | EC50 [2] | IC50 [3] | EC50 [4] | further results
1 | CC(=O)NC1C(=O)N(CCN2CCOCC2)c2ccc(F)cc21 (configuration not stated) | 12.3 µM (active) |  |  |  | 
2 | O=C1C=C(N2CCCCC2)c2ccccc2C1=O |  | 9.02 µM (active) | 2.12 µM (active) | > 120 µM (not active) | 
3 | O=C(O)C1Nc2c(O)cc(Cl)c([N+](=O)[O-])c2C2C=CCC12 (configuration not stated) | 12.8 µM (active) |  |  |  | IC50 [5]: 175 µM (active)
4 | Clc1ccc2nc(-c3ccc(Br)s3)cn2c1 |  |  |  |  | IC50 (Protein skinhead-1): 57.5 µM (inactive)
5 | O=C(CCc1ccccc1)NNc1cc(N2CCCCC2)nc(N2CCCCC2)n1 |  | > 120 µM (not active) | 3.62 µM (active) | > 120 µM (not active) | 
6 | Cc1n[nH]c2ccc(-c3cncc(OCC(N)Cc4cccc(Cl)c4)c3)cc12 (configuration not stated) |  |  |  |  | Ki [6]: 0.398 µM (active); Ki [7]: > 2 µM (inactive)
